We go through 15 compounds from patent publication US9914747B2 (priority 2014, dated 2018).

For the test, the system named is recombinant NL4-3 virus (NLRluc, Renilla luciferase in nef, Gag P373S). The test can be described thus: HIV Cell Culture Assay (luciferase reporter virus in MT-2 cells). The format is cell-based. To be noted: NL43, read-out: WT EC50. As to the method: MT-2 cells and 293T cells were obtained from the NIH AIDS Research and Reference Reagent Program. MT-2 cells were propagated in RPMI 1640 media supplemented with 10% heat inactivated fetal bovine serum, […]. The 293T cells were propagated in DMEM media supplemented with 10% heat inactivated fetal bovine serum (FBS), 100 units/mL penicillin G and 100 μg/mL streptomycin. The proviral DNA clone of NL4-3 was obtained from the NIH AIDS Research and Reference Reagent Program. A recombinant NL4-3 virus, in which a section of the nef gene from NL4-3 was replaced with the Renilla luciferase gene, was used as a reference virus. In addition, residue Gag P373 was converted to P373S. Briefly, the recombinant virus was prepared by transfection of the altered proviral clone of NL4-3. Transfections were performed in 293T cells using LipofectAMINE PLUS from Invitrogen (Carlsbad, Calif.), according to manufacturer's instruction. The virus was titered in MT-2 cells using luciferase enzyme activity as a marker. Luciferase was quantitated using the Dual Luciferase kit from Promega (Madison, Wis.), with modifications to the manufacturer's protocol. The diluted Passive Lysis solution was pre-mixed with the re-suspended Luciferase Assay Reagent and the re-suspended Stop & Glo Substrate (2:1:1 ratio). Fifty (50) […] of the mixture was added to each aspirated well on assay plates and luciferase activity was measured immediately on a Wallac TriLux (Perkin-Elmer). Antiviral activities of inhibitors toward the recombinant virus were quantified by measuring luciferase activity in cells infected for 4-5 days with NLRluc recombinants in the presence serial dilutions of the inhibitor. Biological Data Key for EC50

With `CC(C)[C@@H]1CC[C@]2(C(O)CNCCN(C)C)CC[C@]3(C)[C@H](CC[C@@H]4[C@@]5(C)CC=C(C6=CC[C@](CF)(C(=O)O)CC6)C(C)(C)[C@@H]5CC[C@]43C)[C@@H]12` (single isomer, unassigned) [Example 14], the 50% effective concentration (EC50) is below 100 nM.

For the compound `CC(C)[C@@H]1CC[C@]2([C@H](O)CN(CCN(C)C)Cc3ccc(Cl)cc3)CC[C@]3(C)[C@H](CC[C@@H]4[C@@]5(C)CC=C(C6=CC[C@](CF)(C(=O)O)CC6)C(C)(C)[C@@H]5CC[C@]43C)[C@@H]12` (single isomer, unassigned) [Example 15], the EC50 was below 100 nM.

`CC(C)[C@@H]1CC[C@]2([C@@H](O)CN(CCN(C)C)Cc3ccc(Cl)cc3)CC[C@]3(C)[C@H](CC[C@@H]4[C@@]5(C)CC=C(C6=CC[C@](CF)(C(=O)O)CC6)C(C)(C)[C@@H]5CC[C@]43C)[C@@H]12` (single isomer, unassigned) [Example 16]: the EC50 came out at 130 nM.

Take `C=C(C)[C@@H]1CC[C@]2(/C=C/C(=O)O)CC[C@]3(C)[C@H](CC[C@@H]4[C@@]5(C)CC=C(c6ccc(C(=O)O)cc6)C(C)(C)[C@@H]5CC[C@]43C)[C@@H]12` [Example 1, 4-((1R,3aR,5aR,5bR,7aR,11aS,11bR,13aR,13bR)-3a-((E)-2-carboxyvinyl)-5a,5b,8,8,8,11a-pentamethyl-1-(prop-1-en-2-yl)-2,3,3a,4,5,5a,5b,6,7,7a,8,11,11a,11b,12,13,13a,13b-octadecahydro-1H-cyclopenta[a]chrysen-9-yl)benzoic acid]: the EC50 was found to be 20 nM.

With `C=C(C)[C@@H]1CC[C@]2(/C=C/C(=O)NCCN(C)C)CC[C@]3(C)[C@H](CC[C@@H]4[C@@]5(C)CC=C(c6ccc(C(=O)O)cc6)C(C)(C)[C@@H]5CC[C@]43C)[C@@H]12` [Example 2, 4-((1R,3aR,5aR,5bR,7aR,11aS,11bR,13aR,13bR)-3a-((E)-3-((2-(dimethylamino)ethyl)amino)-3-oxoprop-1-en-1-yl)-5a,5b,8,8,11a-pentamethyl-1-(prop-1-en-2-yl)-2,3,3a,4,5,5a,5b,6,7,7a,8,11,11a,11b,12,13,13a,13b-octadecahydro-1H-cyclopenta[a]chrysen-9-yl)benzoic acid], the EC50 was above 100 nM.

Turning to `C=C(C)[C@@H]1CC[C@]2(/C=C/C(=O)N3CCS(=O)(=O)CC3)CC[C@]3(C)[C@H](CC[C@@H]4[C@@]5(C)CC=C(c6ccc(C(=O)O)cc6)C(C)(C)[C@@H]5CC[C@]43C)[C@@H]12` [Example 3, 4-((1R,3aR,5aR,5bR,7aR,11aS,11bR,13aR,13bR)-3a-((E)-3-(1,1-dioxidothiomorpholino)-3-oxoprop-1-en-1-yl)-5a,5b,8,8,11a-pentamethyl-1-(prop-1-en-2-yl)-2,3,3a,4,5,5a,5b,6,7,7a,8,11,11a,11b,12,13,13a,13b-octadecahydro-1H-cyclopenta[a]chrysen-9-yl)benzoic acid], the EC50 was below 100 nM.

For the compound `C=C(C)[C@@H]1CC[C@]2(/C=C/C(=O)NCCCN3CCS(=O)(=O)CC3)CC[C@]3(C)[C@H](CC[C@@H]4[C@@]5(C)CC=C(c6ccc(C(=O)O)cc6)C(C)(C)[C@@H]5CC[C@]43C)[C@@H]12` [Example 4, 4-((1R,3aR,5aR,5bR,7aR,11aS,11bR,13aR,13bR)-3a-((E)-3-((3-(1,1-dioxidothiomorpholino)propyl)amino)-3-oxoprop-1-en-1-yl)-5a,5b,8,8,11a-pentamethyl-1-(prop-1-en-2-yl)-2,3,3a,4,5,5a,5b,6,7,7a,8,11,11a,11b,12,13,13a,13b-octadecahydro-1H-cyclopenta[a]chrysen-9-yl)benzoic acid], the EC50 is above 100 nM.

`C=C(C)[C@@H]1CC[C@]2(/C=C/C(=O)N(C)OC)CC[C@]3(C)[C@H](CC[C@@H]4[C@@]5(C)CC=C(c6ccc(C(=O)O)cc6)C(C)(C)[C@@H]5CC[C@]43C)[C@@H]12` [Example 5, 4-((1R,3aR,5aR,5bR,7aR,11aS,11bR,13aR,13bR)-3a-((E)-3-(methoxy(methyl)amino)-3-oxoprop-1-en-1-yl)-5a,5b,8,8,11a-pentamethyl-1-(prop-1-en-2-yl)-2,3,3a,4,5,5a,5b,6,7,7a,8,11,11a,11b,12,13,13a,13b-octadecahydro-1H-cyclopenta[a]chrysen-9-yl)benzoic acid]: the EC50 was below 100 nM.

For the compound `C=C(C)[C@@H]1CC[C@]2(/C=C/CN3CCS(=O)(=O)CC3)CC[C@]3(C)[C@H](CC[C@@H]4[C@@]5(C)CC=C(c6ccc(C(=O)O)cc6)C(C)(C)[C@@H]5CC[C@]43C)[C@@H]12` [Example 6, 4-((1R,3aR,5aR,5bR,7aR,11aS,11bR,13aR,13bR)-3a-((E)-3-(1,1-dioxidothiomorpholino)prop-1-en-1-yl)-5a,5b,8,8,11a-pentamethyl-1-(prop-1-en-2-yl)-2,3,3a,4,5,5a,5b,6,7,7a,8,11,11a,11b,12,13,13a,13b-octadecahydro-1H-cyclopenta[a]chrysen-9-yl)benzoic acid], the EC50 is below 100 nM.

In the case of `C=C(C)[C@@H]1CC[C@]2(CCC(=O)N3CCS(=O)(=O)CC3)CC[C@]3(C)[C@H](CC[C@@H]4[C@@]5(C)CC=C(c6ccc(C(=O)O)cc6)C(C)(C)[C@@H]5CC[C@]43C)[C@@H]12` [Example 7, 4-((1R,3aR,5aR,5bR,7aR,11aS,11bR,13aR,13bR)-3a-(3-(1,1-dioxidothiomorpholino)-3-oxopropyl)-5a,5b,8,8,11a-pentamethyl-1-(prop-1-en-2-yl)-2,3,3a,4,5,5a,5b,6,7,7a,8,11,11a,11b,12,13,13a,13b-octadecahydro-1H-cyclopenta[a]chrysen-9-yl)benzoic acid], the 50% effective concentration (EC50) came out at 5.66 nM.

As for `C=C(C)[C@@H]1CC[C@]2(C(=O)C(=O)NCCCN3CCS(=O)(=O)CC3)CC[C@]3(C)[C@H](CC[C@@H]4[C@@]5(C)CC=C(c6ccc(C(=O)O)cc6)C(C)(C)[C@@H]5CC[C@]43C)[C@@H]12` [Example 8, 4-((1R,3aS,5aR,5bR,7aR,11aS,11bR,13aR,13bR)-3a-(2-((3-(1,1-dioxidothiomorpholino)propyl)amino)-2-oxoacetyl)-5a,5b,8,8,11a-pentamethyl-1-(prop-1-en-2-yl)-2,3,3a,4,5,5a,5b,6,7,7a,8,11,11a,11b,12,13,13a,13b-octadecahydro-1H-cyclopenta[a]chrysen-9-yl)benzoic acid], the EC50 is below 100 nM.

Turning to `C=C(C)[C@@H]1CC[C@]2(C(=O)C(=O)NCCN3CCS(=O)(=O)CC3)CC[C@]3(C)[C@H](CC[C@@H]4[C@@]5(C)CC=C(c6ccc(C(=O)O)cc6)C(C)(C)[C@@H]5CC[C@]43C)[C@@H]12` [Example 9, 4-((1R,3aS,5aR,5bR,7aR,11aS,11bR,13aR,13bR)-3a-(2-((2-(1,1-dioxidothiomorpholino)ethyl)amino)-2-oxoacetyl)-5a,5b,8,8,11a-pentamethyl-1-(prop-1-en-2-yl)-2,3,3a,4,5,5a,5b,6,7,7a,8,11,11a,11b, 12,13,13a,13b-octadecahydro-1H-cyclopenta[a]chrysen-9-yl)benzoic acid], the 50% effective concentration (EC50) was below 100 nM.

As for `C=C(C)[C@@H]1CC[C@]2(CCN3CCS(=O)(=O)CC3)CC[C@]3(C)[C@H](CC[C@@H]4[C@@]5(C)CC=C(c6ccc(C(=O)O)cc6)C(C)(C)[C@@H]5CC[C@]43C)[C@@H]12` [Example 10, 4-((1R,3aR,5aR,5bR,7aR,11aS,11bR,13aR,13bR)-3a-(2-(1,1-dioxidothiomorpholino)ethyl)-5a,5b,8,8,11a-pentamethyl-1-(prop-1-en-2-yl)-2,3,3a,4,5,5a,5b,6,7,7a,8,11,11a,11b,12,13,13a,13b-octadecahydro-1H-cyclopenta[a]chrysen-9-yl)benzoic acid], the 50% effective concentration (EC50) was below 100 nM.

In the case of `C=C(C)[C@@H]1CC[C@]2(CCNCCN3CCS(=O)(=O)CC3)CC[C@]3(C)[C@H](CC[C@@H]4[C@@]5(C)CC=C(c6ccc(C(=O)O)cc6)C(C)(C)[C@@H]5CC[C@]43C)[C@@H]12` [Example 11, 4-((1R,3aR,5aR,5bR,7aR,11aS,11bR,13aR,13bR)-3a-(2-((2-(1,1-dioxidothiomorpholino)ethyl)amino)ethyl)-5a,5b,8,8,11a-pentamethyl-1-(prop-1-en-2-yl)-2,3,3a,4,5,5a,5b,6,7,7a,8,11,11a,11b,12,13,13a,13b-octadecahydro-1H-cyclopenta[a]chrysen-9-yl)benzoic acid], the concentration for a half-maximal effect (EC50) turned out to be 1.24 nM.

With `C=C(C)[C@@H]1CC[C@]2(CCN(C)CCN3CCS(=O)(=O)CC3)CC[C@]3(C)[C@H](CC[C@@H]4[C@@]5(C)CC=C(c6ccc(C(=O)O)cc6)C(C)(C)[C@@H]5CC[C@]43C)[C@@H]12` [Example 12, 4-((1R,3aR,5aR,5bR,7aR,11aS,11bR,13aR,13bR)-3a-(2-((2-(1,1-dioxidothiomorpholino)ethyl)(methyl)amino)ethyl)-5a,5b,8,8,11a-pentamethyl-1-(prop-1-en-2-yl)-2,3,3a,4,5,5a,5b,6,7,7a,8,11,11a,11b,12,13,13a,13b-octadecahydro-1H-cyclopenta[a]chrysen-9-yl)benzoic acid], the concentration giving a half-maximal response (EC50) was below 100 nM.
